We go through 10 compounds from ChEMBL document CHEMBL1201862, “PubChem BioAssay data set” (2004).

Some test systems named below: BT-549; DU-145; EKVX; HCT-15; HL-60; HOP-62; HOP-92; IGROV-1; K562; KM12; MDA-MB-435; NCI-H226; NCI-H23; NCI-H522; RXF 393; SW-620; T47D; U-251; UACC-257; UO-31.
Assay in all cases: inhibition of tumour cell growth, NCI panel, 48 h

Molecules are shown by their SMILES.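 Test compounds were applied to cells in 96-well plates for 48 hours at 5 doses. Abbreviation: GI50, concentration required for 50% inhibition of growth.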 Activity calls are given as the source filed them. Cut-off read from the data, not from the text of the source: active = GI50 up to about 1.1 µM and inactive = higher.

With `Cn1nc2c(c1N)Cc1c(nn(C)c1N)-c1ccccc1-2`, the GI50 in the experiment with BT-549 was > 100 µM (inactive); in the experiment with DU-145, > 100 µM (inactive); in the experiment on EKVX, > 100 µM (inactive); with HCT-15, more than 100 µM; in the experiment on HL-60 it was > 100 µM (inactive); in the experiment on HOP-62 it was > 100 µM (inactive). The GI50 in the experiment with HOP-92, in the experiment with IGROV-1, in the experiment on K562, in the experiment with KM12, in the experiment with MDA-MB-435 and with NCI-H226 was > 100 µM (inactive) throughout. Further, the GI50 with NCI-H23, with NCI-H522, in the experiment on RXF 393, with SW-620, in the experiment with T47D and with U-251 was > 100 µM (inactive) each time. Further, the GI50 with UACC-257 and in the experiment with UO-31 was > 100 µM (inactive) in each case.

As to `Cc1c(O)oc2ccccc2c1=O`, the GI50 is > 100 µM (inactive) with BT-549; > 100 µM (inactive) in the experiment with DU-145; > 100 µM (inactive) in the experiment on EKVX; more than 100 µM in the experiment with HCT-15; > 100 µM (inactive) in the experiment on HL-60; > 100 µM (inactive) in the experiment on HOP-62. For the same compound, the GI50 in the experiment with HOP-92, in the experiment on IGROV-1, in the experiment with K562, in the experiment with KM12, with MDA-MB-435 and in the experiment with NCI-H226 was > 100 µM (inactive) in each case. In addition, the GI50 with NCI-H23, in the experiment with NCI-H522, in the experiment on RXF 393, in the experiment on SW-620, in the experiment with T47D and in the experiment with U-251 was > 100 µM (inactive) in each case. For the same compound, the GI50 in the experiment on UACC-257 and in the experiment with UO-31 was > 100 µM (inactive) throughout.

Regarding `CC/C(=N/O)c1ccc(Br)s1`, the GI50 in the experiment with BT-549 is > 100 µM (inactive); in the experiment with DU-145 it was > 100 µM (inactive); with EKVX it was 5.61 µM (inactive); with HCT-15, more than 100 µM; in the experiment with HL-60, 28.6 µM (inactive); with HOP-62 it was > 100 µM (inactive). Further, the GI50 with HOP-92 was 40.3 µM (inactive); with IGROV-1, 55.6 µM (inactive); with K562 it was > 100 µM (inactive); with KM12 it was > 100 µM (inactive); with MDA-MB-435 it was > 100 µM (inactive); in the experiment with NCI-H226, > 100 µM (inactive). Also, the GI50 is > 100 µM (inactive) in the experiment with NCI-H23; > 100 µM (inactive) in the experiment with NCI-H522; 70.3 µM (inactive) in the experiment on RXF 393; > 100 µM (inactive) in the experiment with SW-620; 70 µM (inactive) in the experiment with T47D; > 100 µM (inactive) in the experiment with U-251. Also, the GI50 is > 100 µM (inactive) with UACC-257 and 58.6 µM (inactive) with UO-31.

Regarding `CCOC(=O)[C@@H]1C2C(=C[C@H]3[C@H]1C(=O)N1CCCC[C@H]31)CCCN2C(=O)OCc1ccccc1` (stereo not given in full), the GI50 in the experiment on BT-549 is 24.7 µM (inactive); with DU-145 it was 39.1 µM (inactive); in the experiment on EKVX it was 38.3 µM (inactive); in the experiment on HCT-15, 32.8 µM; in the experiment on HL-60, 20.8 µM (inactive); in the experiment with HOP-62, 42.5 µM (inactive). Further, the GI50 in the experiment on HOP-92 was 76.4 µM (inactive); in the experiment on IGROV-1, 41.3 µM (inactive); with K562, 30.8 µM (inactive); in the experiment with KM12 it was 36.2 µM (inactive); in the experiment with MDA-MB-435, 35 µM (inactive); with NCI-H226, 70.5 µM (inactive). Further, the GI50 was 29.3 µM (inactive) in the experiment with NCI-H23; 18.5 µM (inactive) in the experiment with NCI-H522; 47.8 µM (inactive) in the experiment with RXF 393; 52.2 µM (inactive) in the experiment on SW-620; 29.3 µM (inactive) in the experiment on T47D; 43.6 µM (inactive) with U-251. Moreover, the GI50 in the experiment with UACC-257 is 37.6 µM (inactive); with UO-31 it was 32.8 µM (inactive).

On to `O=C1SC(SCc2ccccc2)=NC12CC2c1ccccc1` (stereo not given), for which the GI50 is 20.2 µM (inactive) in the experiment with BT-549; 29 µM (inactive) with DU-145; 20.2 µM (inactive) in the experiment with EKVX; 20.4 µM in the experiment on HCT-15; 3.56 µM (inactive) in the experiment on HL-60; 29 µM (inactive) with HOP-62. The GI50 in the experiment with HOP-92 is 17.1 µM (inactive); in the experiment with IGROV-1 it was 21.4 µM (inactive); in the experiment on K562, 19.5 µM (inactive); in the experiment with KM12, 17.7 µM (inactive); in the experiment with MDA-MB-435 it was 22.1 µM (inactive); in the experiment with NCI-H226, 23.6 µM (inactive). Further, the GI50 is 20.1 µM (inactive) with NCI-H23; 14.5 µM (inactive) with NCI-H522; 18.7 µM (inactive) with RXF 393; 22.4 µM (inactive) in the experiment with SW-620; 28.5 µM (inactive) in the experiment on T47D; 18.3 µM (inactive) with U-251. Moreover, the GI50 in the experiment on UACC-257 was 16.8 µM (inactive); with UO-31 it was 19.5 µM (inactive).

`COc1ccc(-c2nc3ccc(C)cc3o2)c(OC)c1`: the GI50 in the experiment with BT-549 is 23.7 µM (inactive); in the experiment on DU-145, 25.8 µM (inactive); with EKVX, 19.6 µM (inactive); with HCT-15, 22.5 µM; in the experiment with HL-60, 20.4 µM (inactive); in the experiment with HOP-62 it was 26.8 µM (inactive). Also, the GI50 is 25.4 µM (inactive) in the experiment with HOP-92; 20.8 µM (inactive) in the experiment on IGROV-1; 22.1 µM (inactive) with K562; 19.2 µM (inactive) with KM12; 21.6 µM (inactive) in the experiment with MDA-MB-435; 30 µM (inactive) in the experiment with NCI-H226. The GI50 was 27.8 µM (inactive) in the experiment with NCI-H23; 18.8 µM (inactive) with NCI-H522; 22.5 µM (inactive) with RXF 393; 29.3 µM (inactive) in the experiment on SW-620; 30.1 µM (inactive) with T47D; 1.63 µM (inactive) in the experiment with U-251. The GI50 is 17.7 µM (inactive) in the experiment with UACC-257 and 24 µM (inactive) with UO-31.

As for `CN1C(=O)C23CC4=CC=CC(O)C4N2C(=O)C1(CO)SS3` (stereo not given), the GI50 was 0.291 µM (active) with BT-549; 0.157 µM (active) in the experiment on DU-145; 0.368 µM (active) in the experiment with EKVX; 0.0845 µM in the experiment with HCT-15; 0.0223 µM (active) in the experiment with HL-60; 0.182 µM (active) in the experiment with HOP-62. In addition, the GI50 is 0.165 µM (active) in the experiment on HOP-92; 0.145 µM (active) in the experiment with IGROV-1; 0.139 µM (active) in the experiment on K562; 0.0991 µM (active) in the experiment with KM12; 0.224 µM (active) with MDA-MB-435; 0.0891 µM (active) with NCI-H226. In addition, the GI50 in the experiment with NCI-H23 is 0.167 µM (active); in the experiment with NCI-H522, 0.169 µM (active); in the experiment with RXF 393, 0.179 µM (active); in the experiment on SW-620, 0.237 µM (active); with T47D, 0.183 µM (active); with U-251, 0.153 µM (active). The GI50 was 0.299 µM (active) in the experiment on UACC-257 and 0.565 µM (active) with UO-31.

For `Cc1ccc(S(=O)(=O)NC2=NS(=O)(=O)c3cc(C)c(Cl)cc3S2)cc1`, the GI50 in the experiment with BT-549 is > 100 µM (inactive); in the experiment with DU-145, > 100 µM (inactive); in the experiment on EKVX it was > 100 µM (inactive); with HCT-15 it was more than 100 µM; with HL-60 it was > 100 µM (inactive); with HOP-62, > 100 µM (inactive). Besides, the GI50 is 24.4 µM (inactive) with HOP-92; > 100 µM (inactive) in the experiment on IGROV-1; 34.3 µM (inactive) with K562; > 100 µM (inactive) with KM12; > 100 µM (inactive) with MDA-MB-435; > 100 µM (inactive) in the experiment with NCI-H226. For the same compound, the GI50 in the experiment on NCI-H23 is > 100 µM (inactive); in the experiment on NCI-H522, 42.3 µM (inactive); with RXF 393, 76.7 µM (inactive); in the experiment with SW-620 it was 71.6 µM (inactive); with T47D it was 70.1 µM (inactive); with U-251, > 100 µM (inactive). In addition, the GI50 with UACC-257 and in the experiment with UO-31 was > 100 µM (inactive) throughout.

Regarding `N#CC(C#N)=NNc1ccc2cn[nH]c2c1`, the GI50 with BT-549 is > 100 µM (inactive); with DU-145, 29 µM (inactive); with EKVX, 47.3 µM (inactive); in the experiment on HCT-15 it was 83.2 µM; in the experiment with HL-60, 18.6 µM (inactive); in the experiment with HOP-62, > 100 µM (inactive). The GI50 in the experiment on HOP-92 was 37.1 µM (inactive); with IGROV-1, > 100 µM (inactive); in the experiment on K562, 15.7 µM (inactive); in the experiment on KM12, > 100 µM (inactive); in the experiment on MDA-MB-435 it was 34.3 µM (inactive); in the experiment with NCI-H226, > 100 µM (inactive). Also, the GI50 was 19.1 µM (inactive) in the experiment with NCI-H23; 12.2 µM (inactive) in the experiment on NCI-H522; 26.6 µM (inactive) in the experiment on RXF 393; 41.1 µM (inactive) in the experiment on SW-620; 35.7 µM (inactive) with T47D; > 100 µM (inactive) in the experiment on U-251. Moreover, the GI50 in the experiment on UACC-257 is 20.4 µM (inactive); in the experiment on UO-31, 14 µM (inactive).

As for `CCOC(=O)c1oc2ccc([N+](=O)[O-])c3c2c1CCC3`, the GI50 in the experiment on BT-549 was 46.5 µM (inactive); with DU-145 it was > 100 µM (inactive); in the experiment with EKVX it was 73.6 µM (inactive); in the experiment on HCT-15, 97.9 µM; in the experiment with HL-60 it was > 93.8 µM (inactive); with HOP-62 it was 24.3 µM (inactive). In addition, the GI50 in the experiment with HOP-92 is 17.4 µM (inactive); with IGROV-1, 57.9 µM (inactive); with K562, > 69.7 µM (inactive); with KM12 it was > 79.3 µM (inactive); in the experiment on MDA-MB-435, > 39.3 µM (inactive); with NCI-H226, > 88.7 µM (inactive). The GI50 with NCI-H23 was 61.4 µM (inactive); in the experiment with NCI-H522 it was 35.2 µM (inactive); with RXF 393 it was 26 µM (inactive); in the experiment on SW-620, > 90.8 µM (inactive); in the experiment with T47D, > 31.6 µM (inactive); in the experiment on U-251, 29.9 µM (inactive). The GI50 in the experiment with UACC-257 is > 82 µM (inactive); in the experiment with UO-31, 66.7 µM (inactive).
